Measurements: ChEMBL document CHEMBL1141471, “Implications for selectivity of 3,4-diarylquinolinones as p38alphaMAP kinase inhibitors” (Bioorg Med Chem Lett, 2008)

Assays:
[1] = target: T1, Mitogen-activated protein kinase 14 (Homo sapiens, UniProt Q16539); test: Inhibition of p38alpha
[2] = target: T1, Mitogen-activated protein kinase 14; test: Inhibition of p38alpha assessed as residual activity at 10 uM relative to control
[3] = target: Tyrosine-protein kinase Lck (Homo sapiens) (UniProt P06239); test: Inhibition of Lck; values are per cent of control
Sequence of Tyrosine-protein kinase Lck (Homo sapiens) (P06239 2-509 limits assumed): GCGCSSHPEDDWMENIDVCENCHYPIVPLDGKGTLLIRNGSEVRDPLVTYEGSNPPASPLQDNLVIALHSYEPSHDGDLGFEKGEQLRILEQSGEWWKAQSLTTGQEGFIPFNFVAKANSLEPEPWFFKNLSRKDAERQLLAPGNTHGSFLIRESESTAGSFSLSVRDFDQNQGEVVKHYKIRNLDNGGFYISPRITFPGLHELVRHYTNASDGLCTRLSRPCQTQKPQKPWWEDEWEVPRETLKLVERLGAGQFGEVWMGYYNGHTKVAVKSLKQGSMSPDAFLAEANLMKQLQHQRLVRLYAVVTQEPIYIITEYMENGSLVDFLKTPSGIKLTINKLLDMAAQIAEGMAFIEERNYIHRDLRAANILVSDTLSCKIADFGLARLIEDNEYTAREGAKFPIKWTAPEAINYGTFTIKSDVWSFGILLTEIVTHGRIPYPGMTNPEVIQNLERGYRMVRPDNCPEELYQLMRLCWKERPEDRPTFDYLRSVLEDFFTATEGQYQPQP

[4] = target: T2, Mitogen-activated protein kinase 9 (Homo sapiens, UniProt P45984); test: Inhibition of JNK2
Target sequence in this assay (P45984 whole entry): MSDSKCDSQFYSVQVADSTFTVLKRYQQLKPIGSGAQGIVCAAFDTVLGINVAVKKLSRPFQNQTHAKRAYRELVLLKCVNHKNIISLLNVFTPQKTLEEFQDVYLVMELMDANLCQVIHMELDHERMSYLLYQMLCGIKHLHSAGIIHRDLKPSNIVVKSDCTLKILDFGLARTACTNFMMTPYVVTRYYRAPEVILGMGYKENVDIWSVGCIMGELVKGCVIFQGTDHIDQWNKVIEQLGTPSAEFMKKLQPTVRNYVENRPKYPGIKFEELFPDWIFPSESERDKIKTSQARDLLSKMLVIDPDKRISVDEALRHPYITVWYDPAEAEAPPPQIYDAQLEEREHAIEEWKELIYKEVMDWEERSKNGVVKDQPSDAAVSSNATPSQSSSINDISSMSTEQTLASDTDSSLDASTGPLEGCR

[5] = target: Mitogen-activated protein kinase 8 (Homo sapiens) (UniProt P45983); test: Residual activity of JNK1 at 10 uM relative to control
Sequence of Mitogen-activated protein kinase 8 (Homo sapiens) (P45983 whole entry): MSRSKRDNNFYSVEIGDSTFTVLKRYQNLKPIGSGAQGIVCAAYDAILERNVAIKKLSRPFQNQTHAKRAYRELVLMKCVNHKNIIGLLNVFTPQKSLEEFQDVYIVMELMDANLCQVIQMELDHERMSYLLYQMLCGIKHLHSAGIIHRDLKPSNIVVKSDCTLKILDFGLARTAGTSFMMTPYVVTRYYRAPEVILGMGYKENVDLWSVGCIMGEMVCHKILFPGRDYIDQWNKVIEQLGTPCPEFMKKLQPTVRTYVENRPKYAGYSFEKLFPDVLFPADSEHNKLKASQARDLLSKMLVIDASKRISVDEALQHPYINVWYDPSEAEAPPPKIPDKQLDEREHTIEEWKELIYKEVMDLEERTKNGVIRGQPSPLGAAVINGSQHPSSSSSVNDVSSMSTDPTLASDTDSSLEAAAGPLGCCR

[6] = Inhibition of PKA; values are per cent of control
[7] = target: Mitogen-activated protein kinase 3 (Homo sapiens) (UniProt P27361); test: Inhibition of ERK1 assessed as residual activity at 10 uM relative to control
Sequence of Mitogen-activated protein kinase 3 (Homo sapiens) (P27361 whole entry): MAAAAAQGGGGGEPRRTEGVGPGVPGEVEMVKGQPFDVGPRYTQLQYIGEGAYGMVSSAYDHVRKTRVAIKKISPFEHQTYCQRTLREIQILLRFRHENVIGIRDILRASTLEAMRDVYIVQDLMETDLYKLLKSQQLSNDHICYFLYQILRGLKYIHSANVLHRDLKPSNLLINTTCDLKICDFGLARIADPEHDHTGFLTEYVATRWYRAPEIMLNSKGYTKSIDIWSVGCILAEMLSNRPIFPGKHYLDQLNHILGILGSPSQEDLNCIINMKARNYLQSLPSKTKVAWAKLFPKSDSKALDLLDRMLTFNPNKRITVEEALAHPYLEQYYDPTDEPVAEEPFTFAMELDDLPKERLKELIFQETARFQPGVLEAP

[8] = target: T3, Serine/threonine-protein kinase D1 (Homo sapiens) (UniProt Q15139); test: Inhibition of PKD1; values are per cent of control
T3 sequence (whole entry): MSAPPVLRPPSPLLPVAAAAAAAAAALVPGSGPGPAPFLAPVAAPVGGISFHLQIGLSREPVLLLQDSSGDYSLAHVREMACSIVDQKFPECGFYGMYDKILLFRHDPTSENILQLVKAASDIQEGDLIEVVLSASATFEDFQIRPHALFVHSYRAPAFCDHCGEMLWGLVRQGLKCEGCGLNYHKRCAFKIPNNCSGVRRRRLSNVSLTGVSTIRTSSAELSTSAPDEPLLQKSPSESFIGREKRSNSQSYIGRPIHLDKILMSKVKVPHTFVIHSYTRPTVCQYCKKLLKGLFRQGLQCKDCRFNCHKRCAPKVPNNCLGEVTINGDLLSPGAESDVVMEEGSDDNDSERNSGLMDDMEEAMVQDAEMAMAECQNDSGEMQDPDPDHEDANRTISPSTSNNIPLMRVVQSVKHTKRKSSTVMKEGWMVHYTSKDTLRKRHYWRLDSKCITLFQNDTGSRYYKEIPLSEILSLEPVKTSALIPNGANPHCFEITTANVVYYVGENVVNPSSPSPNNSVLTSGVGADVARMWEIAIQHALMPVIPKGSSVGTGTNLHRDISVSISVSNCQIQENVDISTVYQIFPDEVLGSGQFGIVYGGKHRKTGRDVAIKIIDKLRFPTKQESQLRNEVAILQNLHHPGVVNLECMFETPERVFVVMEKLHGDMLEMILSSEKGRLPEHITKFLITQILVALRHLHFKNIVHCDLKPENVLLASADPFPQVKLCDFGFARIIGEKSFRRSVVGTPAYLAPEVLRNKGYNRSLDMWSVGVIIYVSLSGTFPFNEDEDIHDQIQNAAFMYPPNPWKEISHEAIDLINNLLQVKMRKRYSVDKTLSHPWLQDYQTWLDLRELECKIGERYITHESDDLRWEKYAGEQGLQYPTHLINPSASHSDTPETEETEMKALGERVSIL

[9] = target: T4, Mitogen-activated protein kinase 12 (Homo sapiens) (UniProt P53778); test: Residual activity of p38-gamma at 10 uM relative to control; format: functional
T4 sequence (whole entry): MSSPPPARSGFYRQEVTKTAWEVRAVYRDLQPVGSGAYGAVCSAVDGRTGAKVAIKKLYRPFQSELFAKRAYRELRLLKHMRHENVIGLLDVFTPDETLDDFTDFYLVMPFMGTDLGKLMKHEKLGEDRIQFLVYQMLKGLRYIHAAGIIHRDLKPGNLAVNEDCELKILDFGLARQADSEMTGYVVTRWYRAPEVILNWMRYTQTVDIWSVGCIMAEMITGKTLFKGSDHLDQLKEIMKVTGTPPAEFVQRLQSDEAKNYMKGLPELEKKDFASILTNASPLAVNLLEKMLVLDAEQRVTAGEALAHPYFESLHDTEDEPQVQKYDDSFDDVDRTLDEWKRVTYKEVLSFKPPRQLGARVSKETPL

[10] = target: T2, Mitogen-activated protein kinase 9; test: Residual activity of JNK2 at 10 uM relative to control
Target sequence in this assay (P45984 whole entry, looked up): as the sequence (P45984 whole entry) above

[11] = target: Mitogen-activated protein kinase 1 (Homo sapiens) (UniProt P28482); test: Residual activity of ERK2 at 10 uM relative to control
Sequence of Mitogen-activated protein kinase 1 (Homo sapiens) (P28482 whole entry): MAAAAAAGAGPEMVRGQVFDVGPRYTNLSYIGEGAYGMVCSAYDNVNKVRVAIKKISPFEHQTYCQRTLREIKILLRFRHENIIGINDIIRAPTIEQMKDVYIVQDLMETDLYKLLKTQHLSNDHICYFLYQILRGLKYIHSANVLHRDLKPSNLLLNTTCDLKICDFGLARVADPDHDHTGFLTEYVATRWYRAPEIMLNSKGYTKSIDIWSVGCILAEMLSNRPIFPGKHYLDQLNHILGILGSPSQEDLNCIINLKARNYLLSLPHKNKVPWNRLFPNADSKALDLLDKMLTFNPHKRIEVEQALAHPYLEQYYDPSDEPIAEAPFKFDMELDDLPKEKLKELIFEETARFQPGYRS

[12] = target: T5, Mitogen-activated protein kinase 13 (Homo sapiens) (UniProt O15264); test: Residual activity of p38delta at 10 uM relative to control
T5 sequence (whole entry): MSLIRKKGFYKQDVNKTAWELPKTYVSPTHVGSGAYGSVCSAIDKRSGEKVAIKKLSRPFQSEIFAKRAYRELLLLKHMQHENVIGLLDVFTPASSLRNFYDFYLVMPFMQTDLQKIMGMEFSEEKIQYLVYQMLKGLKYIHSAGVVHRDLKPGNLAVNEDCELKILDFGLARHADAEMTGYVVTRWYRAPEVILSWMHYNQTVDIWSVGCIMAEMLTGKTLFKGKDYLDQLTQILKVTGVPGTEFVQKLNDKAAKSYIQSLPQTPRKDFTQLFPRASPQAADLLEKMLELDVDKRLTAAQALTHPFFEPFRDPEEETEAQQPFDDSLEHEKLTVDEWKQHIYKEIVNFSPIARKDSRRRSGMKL

[13] = target: Mitogen-activated protein kinase 11 (Homo sapiens) (UniProt Q15759); test: Residual activity of p38beta at 10 uM relative to control
Sequence of Mitogen-activated protein kinase 11 (Homo sapiens) (Q15759 whole entry): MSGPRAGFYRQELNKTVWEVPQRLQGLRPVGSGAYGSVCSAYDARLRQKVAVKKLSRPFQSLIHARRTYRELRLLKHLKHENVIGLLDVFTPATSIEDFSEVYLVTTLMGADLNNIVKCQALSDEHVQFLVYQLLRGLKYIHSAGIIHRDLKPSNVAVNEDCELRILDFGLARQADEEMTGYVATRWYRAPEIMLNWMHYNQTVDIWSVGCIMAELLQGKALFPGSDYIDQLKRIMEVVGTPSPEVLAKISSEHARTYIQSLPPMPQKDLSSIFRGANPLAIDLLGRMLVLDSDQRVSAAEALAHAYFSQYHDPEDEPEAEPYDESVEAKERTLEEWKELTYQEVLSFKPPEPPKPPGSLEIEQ

[14] = target: T6, Mitogen-activated protein kinase 15 (Homo sapiens) (UniProt Q8TD08); test: Residual activity of ERK8 at 10 uM relative to control
T6 sequence (whole entry): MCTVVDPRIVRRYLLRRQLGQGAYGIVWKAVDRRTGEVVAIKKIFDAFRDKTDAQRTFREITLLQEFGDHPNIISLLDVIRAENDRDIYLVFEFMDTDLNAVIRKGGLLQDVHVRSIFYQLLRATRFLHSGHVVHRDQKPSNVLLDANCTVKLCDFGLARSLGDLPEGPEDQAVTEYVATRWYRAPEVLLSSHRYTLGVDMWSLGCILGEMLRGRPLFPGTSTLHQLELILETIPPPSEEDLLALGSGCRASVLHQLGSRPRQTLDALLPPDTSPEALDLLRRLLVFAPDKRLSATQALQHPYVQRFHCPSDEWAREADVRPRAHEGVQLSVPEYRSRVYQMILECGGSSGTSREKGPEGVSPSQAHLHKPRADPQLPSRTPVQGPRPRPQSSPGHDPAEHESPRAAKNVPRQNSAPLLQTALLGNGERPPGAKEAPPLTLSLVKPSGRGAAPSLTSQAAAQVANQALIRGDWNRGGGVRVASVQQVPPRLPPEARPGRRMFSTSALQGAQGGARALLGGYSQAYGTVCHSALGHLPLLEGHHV

[15] = target: Mitogen-activated protein kinase 10 (Homo sapiens) (UniProt P53779); test: Residual activity of JNK3 at 10 uM relative to control
Sequence of Mitogen-activated protein kinase 10 (Homo sapiens) (P53779 whole entry): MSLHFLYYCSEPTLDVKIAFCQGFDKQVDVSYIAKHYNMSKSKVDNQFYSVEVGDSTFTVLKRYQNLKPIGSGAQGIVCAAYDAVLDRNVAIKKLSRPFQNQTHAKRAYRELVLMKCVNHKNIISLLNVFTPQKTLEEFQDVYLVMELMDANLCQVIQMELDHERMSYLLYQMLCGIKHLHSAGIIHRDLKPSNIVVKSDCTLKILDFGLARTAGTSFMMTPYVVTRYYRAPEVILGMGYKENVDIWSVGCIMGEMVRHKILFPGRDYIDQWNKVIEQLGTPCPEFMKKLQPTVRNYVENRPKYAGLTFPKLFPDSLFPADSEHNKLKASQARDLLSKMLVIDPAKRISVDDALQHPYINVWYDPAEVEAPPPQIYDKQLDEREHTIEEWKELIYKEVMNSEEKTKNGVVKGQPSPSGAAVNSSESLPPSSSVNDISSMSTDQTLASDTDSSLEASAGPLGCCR

[16] = target: Aurora kinase B (Homo sapiens) (UniProt Q96GD4); test: Inhibition of Aurora B; values are per cent of control
Sequence of Aurora kinase B (Homo sapiens) (Q96GD4 whole entry): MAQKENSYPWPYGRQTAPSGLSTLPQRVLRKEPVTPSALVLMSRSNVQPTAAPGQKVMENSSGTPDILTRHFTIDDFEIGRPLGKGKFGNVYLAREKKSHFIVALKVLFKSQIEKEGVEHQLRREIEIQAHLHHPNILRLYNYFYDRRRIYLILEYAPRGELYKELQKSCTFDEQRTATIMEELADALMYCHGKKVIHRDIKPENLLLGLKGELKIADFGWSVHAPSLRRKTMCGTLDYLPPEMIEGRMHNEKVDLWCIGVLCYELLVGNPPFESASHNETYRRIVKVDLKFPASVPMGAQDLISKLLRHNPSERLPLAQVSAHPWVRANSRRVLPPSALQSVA

[17] = Inhibition of Aurora C; values are per cent of control

T1 sequence (Q16539 whole entry): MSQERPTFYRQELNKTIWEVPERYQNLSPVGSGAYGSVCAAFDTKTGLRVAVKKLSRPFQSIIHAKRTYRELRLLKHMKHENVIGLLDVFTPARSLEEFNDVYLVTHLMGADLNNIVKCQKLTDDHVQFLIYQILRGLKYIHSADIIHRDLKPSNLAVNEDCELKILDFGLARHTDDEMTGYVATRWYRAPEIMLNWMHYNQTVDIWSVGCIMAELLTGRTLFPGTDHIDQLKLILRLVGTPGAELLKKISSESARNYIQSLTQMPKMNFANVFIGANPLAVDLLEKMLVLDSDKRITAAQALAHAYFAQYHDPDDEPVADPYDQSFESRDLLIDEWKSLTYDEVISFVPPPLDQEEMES

Molecule `Cc1ccccc1-c1c(-c2ccncc2)c2ccccc2[nH]c1=O` has an IC50 [1] of 9.7 µM.
Molecule `O=c1cc(-c2ccncc2)c2ccccc2[nH]1` has an Activity [2] of 78%.
Molecule `O=c1c(-c2ccc(F)cc2)c(-c2ccncc2)c2ccccc2n1CCc1ccccc1` has an IC50 [1] of 8.2 µM.
`CC(C)c1onc(-c2ccc(F)cc2)c1-c1ccncc1` showed a residual activity [3] of 42%, an IC50 [4] of 1.28 µM and an Activity [5] of 67%. It also gave a residual activity [6] of 28%, an Activity [7] of 92% and a residual activity [8] of 60%. For the same molecule, the Activity [9] was 84%, the Activity [10] was 13% and the Activity [2] was 20%. For the same molecule, the Activity [11] was 86%, the Activity [12] was 86% and the Activity [13] was 95%. For the same molecule, the Activity [14] was 84% and the Activity [15] was 28%.
`CC#Cn1c(=O)c(-c2ccc(F)cc2)c(-c2ccncc2)c2ccccc21` showed an IC50 [1] of 3.1 µM.
Work on `CC#COc1nc2ccccc2c(-c2ccncc2)c1-c1ccc(F)cc1` yielded an Activity [2] of 79%.
Work on `CC(C)c1noc(-c2ccc(F)cc2)c1-c1ccncc1` yielded a residual activity [16] of 22%, an Activity [5] of 98% and an Activity [7] of 87%. For the same molecule, the Activity [9] was 94%, the Activity [10] was 59% and the residual activity [17] was 35%. It also gave an Activity [2] of 50%, an Activity [11] of 88% and an Activity [12] of 95%. For the same molecule, the Activity [13] was 98%, the Activity [14] was 88% and the Activity [15] was 63%.
In the case of `CCC(O)C(O)n1c(=O)c(-c2ccccc2C)c(-c2ccncc2)c2ccccc21` (stereo not drawn), the Activity [2] is reported as 80%.
Work on `O=c1[nH]c2ccccc2c(-c2ccncc2)c1-c1ccc(F)cc1` yielded an Activity [5] of 86%, an Activity [7] of 84% and an Activity [9] of 89%. For the same molecule, the Activity [10] was 89%, the Activity [2] was 53% and the Activity [11] was 93%. It also gave an Activity [12] of 91%, an Activity [13] of 97% and an Activity [14] of 73%. It also gave an Activity [15] of 106%.
For `CC1(C)OCC(Cn2c(=O)c(-c3ccc(F)cc3)c(-c3ccncc3)c3ccccc32)O1` (stereo not drawn), the Activity [2] was 55%.
For `CCOc1nc2ccccc2c(-c2ccncc2)c1-c1ccc(F)cc1`, the Activity [2] was 66%.
With `Cn1c(=O)c(-c2ccc(F)cc2)c(-c2ccncc2)c2ccccc21` the IC50 [1] was 5.2 µM.
Molecule `CCC(O)C(O)n1c(=O)c(-c2ccc(F)cc2)c(-c2ccncc2)c2ccccc21` (stereo not drawn) has an Activity [2] of 57%.
With `O=c1[nH]c2ccccc2c(-c2ccccc2)c1-c1ccccc1` the Activity [2] was 64%.
`CCn1c(=O)c(-c2ccc(F)cc2)c(-c2ccncc2)c2ccccc21` showed an IC50 [1] of 2.2 µM.
